Measurements taken from publication PMC8432876, “Acetylcholine esterase inhibitory activity of green synthesized nanosilver by naphthopyrones isolated from marine-derived Aspergillus niger” (PLoS ONE, 2021).

Target: acetylcholine esterase AChE (Homo sapiens, UniProt P22303)
Experiment: biochemical
Type: biochemical
Conditions: Ellman's method; for IC50: AChEI activity
Description: Acetylcholine esterase inhibitory activity of isolated compounds and their synthesized silver nanoparticles were assessed using Ellman’s method as previously prescribed.
Acetylcholine esterase inhibitory (AChEI) activity was assessed by using Ellman’s method.

Sequence of acetylcholine esterase AChE (P22303 32-614): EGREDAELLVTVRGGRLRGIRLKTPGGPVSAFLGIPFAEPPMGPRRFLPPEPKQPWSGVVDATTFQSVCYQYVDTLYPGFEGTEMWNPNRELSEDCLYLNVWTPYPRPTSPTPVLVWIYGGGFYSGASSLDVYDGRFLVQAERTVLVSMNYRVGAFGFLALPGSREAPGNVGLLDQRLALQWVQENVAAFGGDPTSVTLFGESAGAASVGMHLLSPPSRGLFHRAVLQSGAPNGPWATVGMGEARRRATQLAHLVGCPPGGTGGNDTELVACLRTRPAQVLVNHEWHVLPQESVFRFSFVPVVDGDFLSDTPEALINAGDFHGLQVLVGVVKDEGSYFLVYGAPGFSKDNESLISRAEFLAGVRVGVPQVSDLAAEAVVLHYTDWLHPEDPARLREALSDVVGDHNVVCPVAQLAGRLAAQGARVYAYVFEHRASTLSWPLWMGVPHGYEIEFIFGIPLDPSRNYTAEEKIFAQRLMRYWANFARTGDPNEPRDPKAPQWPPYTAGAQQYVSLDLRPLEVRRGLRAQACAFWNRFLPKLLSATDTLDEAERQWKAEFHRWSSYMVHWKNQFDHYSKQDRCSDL

Compound | IC50 | AChE inhibitory activity (in words)
COc1cc(OC)c2c(O)c3c(=O)cc(C)oc3cc2c1 [Rubrofusarin B (2), Rubrofusarin B] | 13.9 ± 2.16 µM | moderate inhibitory activity
NC(=O)c1c[nH]c(Cc2ccccc2)cc1=O [Asperginin A (7), Aspernigrin A] | 20.2 ± 3.03 µM | 
COc1cc(OC)c2c(O)c3c(=O)cc(C)oc3c(-c3c(OC)cc4cc(O)c5c(=O)cc(C)oc5c4c3OC)c2c1 [Fonsecinone A (4), Fonsecinone A] | 7.52 ± 2.16 µM | 
COc1cc(OC)c2c(O)c3c(=O)cc(C)oc3c(-c3c(OC)cc4cc5oc(C)cc(=O)c5c(O)c4c3OC)c2c1 [Aurasperone A (3), Aurasperone A] | 4.9 ± 2.16 µM | 
COc1cc(OC)c2c(c1)cc(O)c1c(=O)cc(C)oc12 [Flavasperone (1), Flavasperone] | > 25 µM | didn’t show any inhibitory activity
